# Source: paper PMC12116161, “An Elastase Inhibitor ShSPI from Centipede Attenuates Bleomycin-Induced Pulmonary Fibrosis” (Toxins, 2025)
# “Also recorded” adds a separate entry of the source. Where a SMILES comes first, the peptide text is derived from it. Bridges are numbered along the chain shown (N, C = ends).
# Experiments:
# [1] = tested on: BLM-induced idiopathic pulmonary fibrosis (IPF) mouse model; experiment: Histopathologic analysis of the lungs (H&E and Masson staining) of IPF mice; type: in vivo, ICR mice
# Protocol: Animal Model Preparation: The peptide powder was dissolved in pre-cooled saline and filtered to remove bacteria, then a spray needle was attached to a micro-syringe to aspirate the peptide solution. A total of 56 ICR mice were anesthetized by intramuscular injection of avertin. After anesthesia, the mice were fixed supine, the tongue was gently pulled, the vocal folds were exposed with a laryngoscope, the trachea was gently inserted, and the nebulized solution was rapidly pushed and injected. Each mouse was administered 100 μL of a 0.4 mg/mL bleomycin solution via tracheal spray, with the treatment performed once. Seven days after modeling, the mice were randomly grouped for ShSPI treatment based on weight loss scores. An additional 8 mice received the vehicle (normal saline) and were designated as the sham group.
# A total of 48 suitable mice were randomly divided into five groups: the model control group (MC), the positive control group (PC), and the ShSPI low-dose groups (1 mg/kg), medium-dose groups (2 mg/kg), and high-dose groups (4 mg/kg).
# Drug Administration: Starting on day 7 post-modeling, ShSPI peptide treatment groups were anesthetized with intramuscular avertin and received tracheal spray administration of the peptide. The low-dose group was treated with 1 mg/kg ShSPI peptide, the medium-dose group with 2 mg/kg, and the high-dose group with 4 mg/kg. The positive control group, without anesthesia, received 200 mg/kg pirfenidone (IPFD) via oral gavage. All groups were treated once daily for seven consecutive days.
# Sample Collection: Twenty-four hours after the final treatment, all ICR mice were euthanized via intramuscular injection of suforane. […]
# The samples from experiment 4.1 were then processed using standard protocols for paraffin embedding, and 5 μm thick paraffin sections were prepared. […] Multiple fields were randomly selected, and the severity of alveolar inflammation in each group was quantified according to criteria such as the area of tissue affected by inflammation. […]
# [2] = tested on: ICR healthy mice; experiment: Single administration toxicity study: overall toxicity and examination of major organs; type: in vivo; conditions: single airway spray
# Protocol: Specific pathogen-free (SIPF) grade ICR healthy mice (with an equal number of males and females, procured from Hunan Slaughter King Laboratory Animal Co., Changsha, China) were randomly divided into four experimental groups and received ShSPI via airway spray at doses of 0 mg/kg (control), 40 mg/kg, 80 mg/kg, or 160 mg/kg in a single administration. Following treatment, the mice were monitored for a 14-day observation period. On the fourteenth day, blood plasma samples were collected for precise measurement and analysis of hematological and biochemical parameters. The specific process is as follows.
# At the end of the 14-day observation period, all mice underwent a comprehensive gross anatomical examination. Key organs, including the heart, liver, spleen, lungs, kidneys, brain, and gastrointestinal tract, were evaluated for changes in surface color, morphological structure, size, and tissue texture.
# [3] = ShSPI tracheal spray once daily for 7 days
compound,measurement,setting,value
"CC[C@H](C)[C@@H]1NC(=O)[C@H](C)NC(=O)[C@@H]2CCCN2C(=O)[C@@H]2CSSC[C@H](NC(=O)[C@H](CO)NC(=O)[C@H](CC(N)=O)NC(=O)[C@H](CO)NC(=O)[C@H](Cc3ccc(O)cc3)NC(=O)[C@H](CCSC)NC(=O)[C@H](CCCNC(=N)N)NC(=O)CNC(=O)[C@H](Cc3ccccc3)NC(=O)[C@H](CCC(=O)O)NC(=O)[C@H](CC(=O)O)NC(=O)[C@H](Cc3ccccc3)NC(=O)[C@H](C(C)C)NC(=O)[C@@H]3CCCN3C(=O)[C@H](CCC(N)=O)NC(=O)[C@H](Cc3ccc(O)cc3)NC1=O)C(=O)N[C@@H](CCC(=O)O)C(=O)N[C@@H](CCSC)C(=O)N[C@@H](CCC(N)=O)C(=O)N[C@@H](CCCNC(=N)N)C(=O)N[C@@H](C)C(=O)N[C@@H](CCCNC(=N)N)C(=O)N[C@H](C(=O)N[C@@H](CC(C)C)C(=O)N[C@@H](CCCNC(=N)N)C(=O)NCC(=O)O)CSSC[C@H](N)C(=O)N1CCC[C@H]1C(=O)N[C@@H](CCC(N)=O)C(=O)N[C@@H](C(C)C)C(=O)N2 [ShSPI] (H-CPQVCPAIYQPVFDEFGRMYSNSCEMQRARCLRG-OH; disulfide 1-31, 5-24; N-terminus and C-terminus assumed)",effect on the model's damage (fibrotic lesions),"[1]; ShSPI 1 mg/kg tracheal spray once daily for 7 days, compared with 2 and 4 mg/kg",less effective
same,collagen deposition in the lungs (Masson staining),[1]; [3],substantial inhibition
same,lung inflammation (H&E staining),[1]; [3],substantial reduction
same,histopathological examination of major organs,"[2]; doses up to 160 mg/kg, end of 14-day observation",no pathological changes
same,toxicity after single administration,"[2]; escalating doses up to 160 mg/kg, 14-day observation",no detectable toxicity observed; also recorded: did not show significant toxic effects
